Laboratory results published in ChEMBL document CHEMBL5647692, “The novel dual PI3K/mTOR inhibitor NVP-BGT226 displays cytotoxic activity in both normoxic and hypoxic hepatocarcinoma cells” (Oncotarget, 2015).
Calls of active or inactive are those of the source. The calls are words filed in the database; no cut-off is given here.

What was measured:
[1] = target: Hypoxia-inducible factor 1-alpha (Homo sapiens) (UniProt Q16665); assay: Inhibition of HIF-1alpha in human Mahlavu cells incubated for 6 hrs under hypoxia condition by Western blot analysis; type: cell-based; conditions: dose 0.01-0.1 µM
Hypoxia-inducible factor 1-alpha (Homo sapiens), sequence (Q16665 whole entry, looked up): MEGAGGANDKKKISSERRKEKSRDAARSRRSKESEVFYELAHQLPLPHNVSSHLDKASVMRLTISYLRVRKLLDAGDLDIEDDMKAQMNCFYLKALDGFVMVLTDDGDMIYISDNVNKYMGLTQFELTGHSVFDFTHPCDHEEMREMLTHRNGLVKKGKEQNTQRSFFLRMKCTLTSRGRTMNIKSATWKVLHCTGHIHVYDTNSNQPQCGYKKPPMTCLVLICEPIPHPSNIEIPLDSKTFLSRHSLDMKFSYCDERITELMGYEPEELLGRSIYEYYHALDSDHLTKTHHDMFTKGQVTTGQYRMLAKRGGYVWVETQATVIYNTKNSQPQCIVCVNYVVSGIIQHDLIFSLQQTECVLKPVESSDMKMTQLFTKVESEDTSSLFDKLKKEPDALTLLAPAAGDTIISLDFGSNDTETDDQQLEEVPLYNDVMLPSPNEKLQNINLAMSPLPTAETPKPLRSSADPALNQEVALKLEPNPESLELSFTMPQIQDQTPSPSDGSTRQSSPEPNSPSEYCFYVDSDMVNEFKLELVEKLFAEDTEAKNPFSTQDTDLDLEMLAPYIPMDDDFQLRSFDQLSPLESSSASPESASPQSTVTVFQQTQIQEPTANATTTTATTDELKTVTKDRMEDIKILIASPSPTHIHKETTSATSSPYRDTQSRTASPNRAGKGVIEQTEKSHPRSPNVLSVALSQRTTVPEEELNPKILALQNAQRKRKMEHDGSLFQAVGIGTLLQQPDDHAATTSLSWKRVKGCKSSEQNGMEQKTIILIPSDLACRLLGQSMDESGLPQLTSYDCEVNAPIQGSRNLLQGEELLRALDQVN

[2] = tested on: Mahlavu; assay: Induction of autophagy in human Mahlavu cells assessed as increased expression of LC3A/B II level incubated for 24 hrs under hypoxia condition by Western blot analysis; type: functional, cell-based; conditions: dose 0.1-0.5 µM
[3] = tested on: SNU-475; assay: Induction of apoptosis in human SNU-475 cells assessed as cleaved Caspase 9 level at 0.5 uM incubated for 24 hrs by Western blotting analysis; type: functional, cell-based
[4] = Inhibition of PI3K/Akt/mTOR signaling pathway in human Mahlavu cells assessed as reduction in phosphorylation of Akt at 0.001 to 0.01 uM incubated for 1 hr under hypoxia condition by Western blotting analysis; type: cell-based; conditions: dose 0.001-0.01 µM
[5] = tested on: SNU-475; assay: Cytotoxicity against human SNU-475 cells assessed as reduction in cell viability at 0.5 uM incubated for 24 hrs in presence of chloroquine under hypoxia condition by MTT assay; type: functional, cell-based
[6] = Inhibition of PI3K/Akt/mTOR signaling pathway in human Mahlavu cells assessed as reduction in phosphorylation of Akt at 1 to 10 nM incubated for 1 hr under hypoxia condition by Western blotting analysis; type: cell-based; conditions: dose 1-10 nM
[7] = tested on: Mahlavu; assay: Cytotoxicity against human Mahlavu cells assessed as reduction in cell viability at 0.5 uM incubated for 24 hrs in presence of chloroquine by MTT assay; type: functional, cell-based
[8] = Inhibition of PI3K/Akt/mTOR signaling pathway in human SNU-449 cells assessed as reduction in phosphorylation of GSK3 alpha/beta incubated for 1 hr under normoxia condition by Western blotting analysis; type: cell-based; conditions: dose 0.25-1 µM
[9] = Inhibition of PI3K/Akt/mTOR signaling pathway in human Hep3B cells assessed as reduction in phosphorylation of mTORC1 substrate S6 incubated for 1 hr under normoxia condition by Western blotting analysis; type: cell-based; conditions: dose 0.25-1 µM
[10] = tested on: SNU-475; assay: Induction of autophagy in human SNU-475 cells assessed as increase in lipidation of LC3I to LC3II at 0.5 uM incubated for 24 hrs by Western blot analysis; type: functional, cell-based
[11] = tested on: Mahlavu; assay: Induction of apoptosis in human Mahlavu cells assessed as late apoptotic cells at 0.66 uM incubated for 24 hrs by Annexin-V/7-AAD staining based muse cell analyzer method (reference value: 2.24 %); type: functional
[12] = tested on: SNU-449; assay: Induction of apoptosis in human SNU-449 cells assessed as necrotic cells at IC50 concentration incubated for 24 hrs in presence of Z-VAD-fmk by Annexin-V/7-AAD staining based muse cell analyzer method (reference value: 0.95 %); type: functional
[13] = tested on: Mahlavu; assay: Induction of apoptosis in human Mahlavu cells assessed as chromatin condensation under normoxia condition at 0.1 to 0.5 uM incubated for 24 hrs by DAPI staining based fluorescence microscope analysis; type: functional, cell-based; conditions: dose 0.1-0.5 µM
[14] = Inhibition of PI3K/Akt/mTOR signaling pathway in human SNU-475 cells assessed as reduction in phosphorylation of Akt at 0.001 to 0.01 uM incubated for 1 hr under hypoxia condition by Western blotting analysis; type: cell-based; conditions: dose 0.001-0.01 µM
[15] = tested on: Mahlavu; assay: Induction of autophagy in human Mahlavu cells assessed as increase in lipidation of LC3I to LC3II at 0.5 uM incubated for 24 hrs by Western blot analysis; type: functional, cell-based
[16] = tested on: SNU-449; assay: Cytotoxicity against human SNU-449 cells assessed as reduction in cell viability at 0.5 to 5 uM incubated for 24 hrs by MTT assay; type: functional, cell-based; conditions: dose 0.5-5 µM
[17] = Inhibition of PI3K/Akt/mTOR signaling pathway in human HepG2 cells assessed as reduction in phosphorylation of GSK3 alpha/beta incubated for 1 hr under normoxia condition by Western blotting analysis; type: cell-based; conditions: dose 0.25-1 µM
[18] = Inhibition of PI3K/Akt/mTOR signaling pathway in human SNU-449 cells assessed as reduction in phosphorylation of Akt at 0.001 to 0.01 uM incubated for 1 hr under hypoxia condition by Western blotting analysis; type: cell-based; conditions: dose 0.001-0.01 µM
[19] = Inhibition of PI3K/Akt/mTOR signaling pathway in human SNU-449 cells assessed as reduction in phosphorylation of mTORC1/2 incubated for 1 hr under normoxia condition by Western blotting analysis; type: cell-based; conditions: dose 0.25-1 µM
[20] = tested on: SNU-475; assay: Induction of autophagy in human SNU-475 cells assessed as decreased expression of SQSTM1/p62 level incubated for 24 hrs under hypoxia condition by Western blot analysis; type: functional, cell-based; conditions: dose 0.1-0.5 µM
[21] = tested on: HepG2; assay: Cytotoxicity against human HepG2 cells assessed as reduction in cell viability at 0.5 to 5 uM incubated for 24 hrs by MTT assay; type: functional, cell-based; conditions: dose 0.5-5 µM
[22] = tested on: Hep 3B2; assay: Induction of apoptosis in human Hep3B cells assessed as cleaved PARP level at 0.5 uM incubated for 24 hrs by Western blotting analysis; type: functional, cell-based
[23] = tested on: Hep 3B2; assay: Cytotoxicity against human Hep3B cells assessed as reduction in cell viability incubated for 24 hrs under normoxia condition by MTT assay; type: functional, cell-based
[24] = tested on: Mahlavu; assay: Cytotoxicity against human Mahlavu cells assessed as reduction in cell viability incubated for 24 hrs under hypoxia condition by MTT assay; type: functional, cell-based
[25] = tested on: HepG2; assay: Cytotoxicity against human HepG2 cells assessed as reduction in cell viability incubated for 48 hrs by MTT assay; type: functional, cell-based; conditions: HepG2, 48 h
[26] = tested on: SNU-449; assay: Cytotoxicity against human SNU-449 cells assessed as reduction in cell viability incubated for 48 hrs by MTT assay; type: functional, cell-based; conditions: SNU-449, 48 h
[27] = tested on: Mahlavu; assay: Induction of apoptosis in human Mahlavu cells assessed as necrotic cells at IC50 incubated for 24 hrs in presence of Z-VAD-fmk by Annexin-V/7-AAD staining based muse cell analyzer method (reference value: 0.67 %); type: functional
[28] = Inhibition of PI3K/Akt/mTOR signaling pathway in human Hep3B cells assessed as reduction in phosphorylation of mTORC1/2 incubated for 1 hr under normoxia condition by Western blotting analysis; type: cell-based; conditions: dose 0.25-1 µM
[29] = tested on: Mahlavu; assay: Induction of apoptosis in human Mahlavu cells assessed as cleaved PARP level at 0.5 uM incubated for 24 hrs by Western blotting analysis; type: functional, cell-based
[30] = Inhibition of PI3K/Akt/mTOR signaling pathway in human SNU-475 cells assessed as reduction in phosphorylation of Akt at 1 to 10 nM incubated for 1 hr under normoxia condition by Western blotting analysis; type: cell-based; conditions: dose 1-10 nM
[31] = tested on: Mahlavu; assay: Induction of apoptosis in human Mahlavu cells assessed as early apoptotic cells at IC50 incubated for 24 hrs in presence of Z-VAD-fmk by Annexin-V/7-AAD staining based muse cell analyzer method (reference value: 6.57 %); type: functional
[32] = tested on: Hep 3B2; assay: Induction of cell cycle arrest in human Hep3B cells assessed as decrease in accumulation of cells in S phase incubated at 0.01 to 0.1 uM for 24 hrs by propidium iodide staining based muse cell analysis; type: functional; conditions: dose 0.01-0.1 µM
[33] = tested on: Mahlavu; assay: Induction of apoptosis in human Mahlavu cells assessed as late apoptotic cells at IC50 incubated for 24 hrs in presence of Z-VAD-fmk by Annexin-V/7-AAD staining based muse cell analyzer method (reference value: 2.24 %); type: functional
[34] = tested on: Hep 3B2; assay: Cytotoxicity against human Hep3B cells assessed as reduction in cell viability at 0.5 to 5 uM incubated for 24 hrs by MTT assay; type: functional, cell-based; conditions: dose 0.5-5 µM

In the case of `COc1ccc(-c2ccc3ncc4c(c3c2)n(-c2ccc(N3CCNCC3)c(C(F)(F)F)c2)c(=O)n4C)cn1` [BGT-226 FREE BASE], the inhibition [1] is reported as “Dose-Dependent Effect”, the Activity [2] is reported as “Dose-Dependent Effect” and the Activity [3] is reported as “Active”. For the same molecule, the inhibition [4] was “Active”, the Activity [5] was “Active” and the inhibition [6] was “Active”. For the same molecule, the Activity [7] was “Active”, the inhibition [8] was “Dose-Dependent Effect” and the inhibition [9] was “Dose-Dependent Effect”. The Activity [10] was “Active”, the Activity [11] was 1.99% and the Activity [12] was 0.45%. The Activity [13] was “Active”, the inhibition [14] was “Active” and the Activity [15] was “Active”. The Activity [16] was “Active”, the inhibition [17] was “Dose-Dependent Effect” and the inhibition [18] was “Active”. The inhibition [19] was “Dose-Dependent Effect”, the Activity [20] was “Dose-Dependent Effect” and the Activity [21] was “Active”. The Activity [22] was “Active”, the Activity [23] was “Active” and the Activity [24] was “Active”. The IC50 [25] was 1350 nM, the IC50 [26] was 510 nM and the Activity [27] was 0.54%. For the same molecule, the inhibition [28] was “Dose-Dependent Effect”, the Activity [29] was “Active” and the inhibition [30] was “Active”. For the same molecule, the Activity [31] was 11.97%, the Activity [32] was “Active” and the Activity [33] was 5.85%. The Activity [34] was “Active”.
